Source: US20220249394A1 (priority 2019, published 2022)

Columns and labels:
[1] = biological target: prion protein (PrP^C) in N2a cells (Mus musculus, UniProt P04925); assay type: cell-based; conditions: 6 mM HFIP for 24 hours, protease K 10 μg/ml 37° C. 30 minutes, Western blotting, FIG. 2 #1 to #4
[2] = system: ScNeuro 2a (ScN2a) cells producing abnormal prion protein (PrP^Sc); assay type: cell-based, mouse; conditions: 24 hours culture with 0-40 mM HFIP, crystal violet staining, FIG. 1
[3] = system: Neuro 2a (N2a) cells producing normal prion protein (PrP^C); assay type: cell-based, mouse; conditions: 24 hours culture with 0-40 mM HFIP, crystal violet staining, FIG. 1

Sequence of prion protein (PrP^C) in N2a cells (P04925 23-230 limits assumed): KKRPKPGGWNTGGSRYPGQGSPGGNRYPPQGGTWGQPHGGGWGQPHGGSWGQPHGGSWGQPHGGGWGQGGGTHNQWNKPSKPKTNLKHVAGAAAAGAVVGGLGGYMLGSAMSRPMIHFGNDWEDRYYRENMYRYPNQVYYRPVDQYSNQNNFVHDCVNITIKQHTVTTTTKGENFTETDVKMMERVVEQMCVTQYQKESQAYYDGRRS

SMILES: OC(C(F)(F)F)C(F)(F)F [HFIP, 1,1,1,3,3,3-hexafluoro-2-propanol]
- degradation of protein by protease K [1]: degraded by protease K with or without the addition of HFIP
- upper concentration limit at which ScN2a cells can survive [2]: 20 mM
- upper concentration limit of HFIP at which N2a cells can survive [3]: 25 mM
